Key:
Assay in all cases: Northern analysis of mRNA accumulation in cultured tobacco cells
Type in all cases: cell-based
[1] = system: G8-1
Description: FIG. 1. […] Northern analysis of genes identified by differential display. Gel-purified DNA fragments produced by ddPCR were either used directly for random-primed labeling and probing of Northern filters (e.g. C7-1, C6-1, and G9-2) or first subcloned and released by restriction digest. Each lane contains 1 μg of poly(A) mRNA from cultured tobacco cells treated with (1) H2O, 4 hr; (2) 200 μM SA, 4 hr; (3) 71 μM CHX, 5 hr; (4) 71 μM CHX, 5 hr plus 200 μM SA after 1 hr (4 hr total); (5) 20 μM SA, 2 hr; (7) 200 μM SA, 8 hr.
FIG. 2. Time course of SA-induced gene expression. Northern analysis of representative differential display genes following treatment of cultured tobacco cells with SA for the indicated time (in hours, except lanes 2-4, which refer to 10, 20, and 30 min.). Twenty micrograms of total RNA was loaded per lane. Blots were hybridized with ddPCR fragments indicated at right or with the β-ATPase gene as a loading control probe. Autoradiogram exposure times were optimized for each gene. […] Labels on left indicate response class.
FIG. 4. Specificity of induction among SA analogs and other signalling compounds. Northern analysis of representative differential display genes following treatment of tobacco cells with 100 μM or 1 mM (left and right side of triangles, respectively) of the following chemicals for 2-2.5 hr: salicylic acid (SA, lanes 4 and 5), acetylSA (ASA, lanes 6 and 7), benzoic acid (BA, lanes 8 and 9), 4-hydroxybenzoic (4HBA, lanes 10 and 11), thiamine (thia, lanes 12 and 13), methyljasmonate (MJ, lanes 14 and 15), abscisic acid (ABA, lanes 16 and 17), or 2,4-dichlorophenoxyacetic acid (2,4-D, lanes 18 and 19). Control treatments are H2O (H, lane 1), 1% ethanol (E, solvent concentration in MJ treatments, lane 2), or 1% DMSO (D, solvent concentration in 2,4D treatments, lane 3). Blots were hybridized with ddPCR fragments indicated at right or with the β-ATPase geneas a loading control probe. Autoradiogram exposure times were optimized for each gene. […] Labels on left indicate response class.
FIG. 5. Dose response of C18-1 and G8-1 to a range of chemicals. Northern analysis of tobacco cell cultures with eight concentrations of SA, ASA, BA, 4HBA, Thia, MJ, ABA, 2,4-D, or H2O for 2-2.5 hr. Concentrations were 0.1, 1, 3, 10, 30, 100, 300 μM or […], as indicated.
FIG. 6. […] Graphic representation of mRNA accumulation of G8-1 ( ), C18se -1 (♦), and IEGT (o) in response to a 2-2.5 hr incubation of cultured tobacco cells with a range of SA concentrations. RNA gel blots were quantitated by phosphorimaging analysis and normalized relative to the β-ATPase gene loading control (not shown).
(§1) Differential display technology (Liang, P. and Pardee, A. B., Science 257: 967-971, 1992) was used to identify genes activated in the presence of SA, CHX and both. Therefore the absence or presence of SA, induction at 3 timepoints of SA-treatment, 2 different concentrations of SA and the effect of addition of CHX were measured. Seven treatments in total were performed. Treatment of tobacco BY-2 suspension cells and leaves and differential display PCR reactions were performed as described (Horvath and Chua (1996), Plant Mol. Biol. 31, 1061-1072).
The specificity for induction by SA was tested by treating tobacco cells with a range of SA analogs and plant signalling compounds at 0.1 and 1 mM for approximately 2.5 h.

[2] = system: C14-1b
Description: (§2) FIG. 2. Time course of SA-induced gene expression. Northern analysis of representative differential display genes following treatment of cultured tobacco cells with SA for the indicated time (in hours, except lanes 2-4, which refer to 10, 20, and 30 min.). Twenty micrograms of total RNA was loaded per lane. Blots were hybridized with ddPCR fragments indicated at right or with the β-ATPase gene as a loading control probe. Autoradiogram exposure times were optimized for each gene. The signal for C18-1 was enhanced by using the full length cDNA as probe. Labels on left indicate response class.
(§3) FIG. 4. Specificity of induction among SA analogs and other signalling compounds. Northern analysis of representative differential display genes following treatment of tobacco cells with 100 μM or 1 mM (left and right side of triangles, respectively) of the following chemicals for 2-2.5 hr: salicylic acid (SA, lanes 4 and 5), acetylSA (ASA, lanes 6 and 7), benzoic acid (BA, lanes 8 and 9), 4-hydroxybenzoic (4HBA, lanes 10 and 11), thiamine (thia, lanes 12 and 13), methyljasmonate (MJ, lanes 14 and 15), abscisic acid (ABA, lanes 16 and 17), or 2,4-dichlorophenoxyacetic acid (2,4-D, lanes 18 and 19). Control treatments are H2O (H, lane 1), 1% ethanol (E, solvent concentration in MJ treatments, lane 2), or 1% DMSO (D, solvent concentration in 2,4D treatments, lane 3). Blots were hybridized with ddPCR fragments indicated at right or with the β-ATPase geneas a loading control probe. Autoradiogram exposure times were optimized for each gene. The signal for C18-1 was enhanced by using the full length cDNA as probe. Labels on left indicate response class.
as §1
(§4) The specificity for induction by SA was tested by treating tobacco cells with a range of SA analogs and plant signalling compounds at 0.1 and 1 mM for approximately 2.5 h. […] Among the SA-analogs, acetyl-SA (ASA, aspirin), benzoic acid (BA) and 4-hydroxybenzoic acid (4HBA), responses generally reflected the ability of the analog to substitute for SA in other cellular responses (Yalpani, N. et al., Plant Cell 3: 809-818, 1991, Yang, Y. and Klessig, D. F., Proc. Natl. Acad. Sci. 93, 14972-14977, 1996). […] Several genes, including those for proteinase inhibitors and lipoxygenase (Hildmann, T. et al., Plant Cell 4: 1157-1170, 1992; Melan, M. A. et al., Plant Physiol. 101: 441-450, 1993; Xu, D. et al., Plant Mol. Biol. 22: 573-588, 1993) are known to be under dual regulation by MJ and ABA. A similar mode of regulation may be in effect with C14-1b. the auxin 2,4-D induced several genes including C18-1/EREBP1 and C6-2.

[3] = system: C6-2
Description: as §2, §3, §1, §4

[4] = system: C18-1/EREBP1; details: SA time course, full length cDNA probe
[5] = 0.1 and 1 mM, approximately 2.5 h

O=C(O)c1ccccc1O [SA, salicylic acid]
G8-1 mRNA levels at 20 μM SA ([1]; 20 μM SA): comparable to those at 200 μM
G8-1 induction at 0.1 mM versus 1 mM [1, 5]: equal or greater induction at 0.1 mM versus 1 mM
mRNA induction of G8-1 (class III) ([1]; SA at 2, 4, 8 h, 71 μM CHX 5 hrs): rapid mRNA induction
time at which G8-1 is first detected ([1]; SA time course): 30 to 60 min
time at which G8-1 reaches a plateau ([1]; SA time course): 2 to 2.5 h
time for which G8-1 plateau is maintained ([1]; SA time course): at least 12 h
induction of C14-1b [2, 5]: did not reveal response
time at which C14-1b induction is apparent ([2]; SA time course): 2 to 2.5 h
time of peak C14-1b expression ([2]; SA time course): 5 h
C6-2 induction at 0.1 mM versus 1 mM [3, 5]: greater induction at 1mM
time at which C6-2 induction is apparent ([3]; SA time course): ≤ 10 min
time of peak C6-2 mRNA ([3]; SA time course): approximately 1.5 h
time of reduction of C6-2 mRNA to background levels ([3]; SA time course): ≤ 4 h
time at which increase in C18-1/EREBP1 mRNA is first apparent [4]: 10 min

Reference: patent publication US20020039780A1, “Salicyclic acid inducible genes and promoters” (priority 1998, published 2002)
